Source: patent publication US20120225135A1 (priority 2010, published 2012)
Values joined by “and” are separate entries in the source; they are usually repeats but may differ in a detail not shown here. Equal values may be shown once. Read-outs that look alike come from different tables or passages of the source.

Experiments:
[1] = type: physicochemical; conditions: for Found ppm: test level 0.13 ppm ClO2, taken 0.130 ppm
Pediococcus damnosus = experiment: Microbiological effectiveness at cold temperatures; type: cell-based
TPC = experiment: Sanitation of fishing holds, TPC; conditions: cleaned surface sprayed with 10 ppm ClO2 solution
Text: Gross filth removed and washed in detergent
Cleaned surface sprayed with 10 ppm ClO2 solution

[2] = system: Cryptosporidium parvum oocysts; conditions: in vivo
Total Count = experiment: Disinfection of effluents, total count; type: cell-based; conditions: for Total Count: effluents, ClO2 dose 9.86 mg/L, 30 minutes; for Total Count per 100 mL: trickling filters effluents
Total Coliform = experiment: Disinfection of effluents, total coliforms; type: cell-based; conditions: for Total Coliforms: effluents, ClO2 dose 9.86 mg/L, 30 minutes; for Total Coliform per 100 mL: trickling filters effluents
Confirmed Coliform = experiment: Disinfection of effluents, confirmed coliforms; type: cell-based; conditions: for Confirmed Coliforms: effluents, ClO2 dose 9.86 mg/L, 30 minutes; for Confirmed Coliform per 100 mL: trickling filters effluents
E-Coli Phage = experiment: Disinfection of effluents, E. coli phage; type: cell-based; conditions: ClO2 dose 9.86 mg/L, 30 minutes
[3] = ClO2 dose 2.7 mg/L, contact time 5 min
[4] = ClO2 dose 2.7 mg/L, contact time 20 min
[5] = ClO2 dose 2.7 mg/L, contact time 35 min
[6] = ClO2 dose 5.0 mg/L, contact time 15 min
[7] = ClO2 dose 5.0 mg/L, contact time 30 min
[8] = ClO2 dose 5.0 mg/L, contact time 45 min
[9] = ClO2 dose 10.8 mg/L, contact time 5 min
[10] = ClO2 dose 10.8 mg/L, contact time 20 min
[11] = ClO2 dose 10.8 mg/L, contact time 35 min

[O][Cl+][O-] [Chlorine Dioxide, chlorine dioxide]
Mean ([1]; Day 1, n 6): 0.126 ppm
Found ppm ([1]; Day 1): 0.128 ppm and 0.126 ppm and 0.115 ppm and 0.127 ppm and 0.133 ppm
Mean ([1]; Day 5, n 6): 0.122 ppm
Found ppm ([1]; Day 5): 0.125 ppm and 0.122 ppm and 0.117 ppm and 0.123 ppm and 0.118 ppm
Mean ([1]; Day 15, n 5): 0.129 ppm
Found ppm ([1]; Day 15): 0.133 ppm and 0.129 ppm and 0.127 ppm and 0.125 ppm and 0.131 ppm and 0.157* ppm
Mean ([1]; Day 30, n 5): 0.128 ppm
Found ppm ([1]; Day 30): 0.126 ppm and 0.130 ppm and 0.128 ppm and 0.125 ppm and 0.161* ppm
Mean ([1]; Day 48, n 5): 0.129 ppm
Found ppm ([1]; Day 48): 0.131 ppm and 0.127 ppm and 0.128 ppm and 0.164* ppm
Mean ([1]; Day 96, n 4): 0.133 ppm
Found ppm ([1]; Day 96): 0.137 ppm and 0.132 ppm and 0.128 ppm and 0.133 ppm and 0.161* ppm
Deactivation (%) (Pediococcus damnosus): 99.999%
TPC at day zero (TPC): less than 7×10^4
reduction of infectivity for mice [2]: > 3 log 10
Total Count (Total Count; pH initial 4.6, final 4.4): 5 MPN per 100 ml
Total Count (Total Count; pH initial 5.5, final 5.6): 15 MPN per 100 ml
Total Count (Total Count; pH initial 6.5, final 6.7): 30 MPN per 100 ml
Total Count (Total Count; pH initial 7.5, final 7.6): 1 × 10^2 MPN per 100 ml
Total Count (Total Count; pH initial 8.2, final 8.1): 2 × 10^2 MPN per 100 ml
Total Count (Total Count; pH initial 9.1, final 9.2): 2.5 × 10^3 MPN per 100 ml
Total Count (Total Count; pH initial 10.0, final 10.0): 6.8 × 10^2 MPN per 100 ml
Total Count per 100 mL (Total Count; [3]): 6.75 × 10^7 per 100 mL
Total Count per 100 mL (Total Count; [4]): 5.3 × 10^7 per 100 mL
Total Count per 100 mL (Total Count; [5]): 3.1 × 10^7 per 100 mL
Total Count per 100 mL (Total Count; [6]): 2.0 × 10^6 per 100 mL
Total Count per 100 mL (Total Count; [7]): 1.6 × 10^5 per 100 mL
Total Count per 100 mL (Total Count; [8]): 9.0 × 10^4 per 100 mL
Total Count per 100 mL (Total Count; [9]): 1.2 × 10^5 per 100 mL
Total Count per 100 mL (Total Count; [10]): 2.9 × 10^4 per 100 mL
Total Count per 100 mL (Total Count; [11]): 2.5 × 10^4 per 100 mL
Total Coliforms (Total Coliform; pH initial 4.6, final 4.4): 4.5 MPN per 100 ml
Total Coliforms (Total Coliform; pH initial 5.5, final 5.6): 7.8 MPN per 100 ml
Total Coliforms (Total Coliform; pH initial 6.5, final 6.7): 7.8 MPN per 100 ml
Total Coliforms (Total Coliform; pH initial 7.5, final 7.6): 49 MPN per 100 ml
Total Coliforms (Total Coliform; pH initial 8.2, final 8.1): 4.6 × 10^2 MPN per 100 ml
Total Coliforms (Total Coliform; pH initial 9.1, final 9.2): 5.4 × 10^3 MPN per 100 ml
Total Coliforms (Total Coliform; pH initial 10.0, final 10.0): 2.4 × 10^4 MPN per 100 ml
Total Coliform per 100 mL (Total Coliform; [3]): 2.4 × 10^7 per 100 mL
Total Coliform per 100 mL (Total Coliform; [4]): 1.3 × 10^7 per 100 mL
Total Coliform per 100 mL (Total Coliform; [5]): 2.4 × 10^6 per 100 mL
Total Coliform per 100 mL (Total Coliform; [6]): 2.4 × 10^6 per 100 mL
Total Coliform per 100 mL (Total Coliform; [7]): 7.9 × 10^3 per 100 mL
Total Coliform per 100 mL (Total Coliform; [8]): 2.4 × 10^3 per 100 mL
Total Coliform per 100 mL (Total Coliform; [9]): 1.3 × 10^3 per 100 mL
Total Coliform per 100 mL (Total Coliform; [10]): 3.3 × 10^2 per 100 mL
Confirmed Coliforms (Confirmed Coliform; pH initial 4.6, final 4.4): 2 MPN per 100 ml
Confirmed Coliforms (Confirmed Coliform; pH initial 5.5, final 5.6): 2 MPN per 100 ml
Confirmed Coliforms (Confirmed Coliform; pH initial 6.5, final 6.7): 4.5 MPN per 100 ml
Confirmed Coliforms (Confirmed Coliform; pH initial 7.5, final 7.6): 17 MPN per 100 ml
Confirmed Coliforms (Confirmed Coliform; pH initial 8.2, final 8.1): 33 MPN per 100 ml
Confirmed Coliforms (Confirmed Coliform; pH initial 9.1, final 9.2): 7.9 × 10^2 MPN per 100 ml
Confirmed Coliforms (Confirmed Coliform; pH initial 10.0, final 10.0): 1.3 × 10^4 MPN per 100 ml
Confirmed Coliform per 100 mL (Confirmed Coliform; [3]): 1.3 × 10^7 per 100 mL
Confirmed Coliform per 100 mL (Confirmed Coliform; [4]): 2.4 × 10^7 per 100 mL
Confirmed Coliform per 100 mL (Confirmed Coliform; [5]): 2.4 × 10^6 per 100 mL
Confirmed Coliform per 100 mL (Confirmed Coliform; [6]): 2.4 × 10^6 per 100 mL
Confirmed Coliform per 100 mL (Confirmed Coliform; [7]): 1.1 × 10^2 per 100 mL
Confirmed Coliform per 100 mL (Confirmed Coliform; [9]): 1.3 × 10^3 per 100 mL
Confirmed Coliform per 100 mL (Confirmed Coliform; [10]): 14 per 100 mL
Confirmed Coliform per 100 mL (Confirmed Coliform; [11]): 7.8 per 100 mL
E-Coli Phage (E-Coli Phage; pH initial 4.6, final 4.4): 0 MPN per 100 ml
E-Coli Phage (E-Coli Phage; pH initial 5.5, final 5.6): 0 MPN per 100 ml
E-Coli Phage (E-Coli Phage; pH initial 6.5, final 6.7): 0 MPN per 100 ml
E-Coli Phage (E-Coli Phage; pH initial 7.5, final 7.6): 0 MPN per 100 ml
E-Coli Phage (E-Coli Phage; pH initial 8.2, final 8.1): 2 MPN per 100 ml
E-Coli Phage (E-Coli Phage; pH initial 9.1, final 9.2): 79 MPN per 100 ml
E-Coli Phage (E-Coli Phage; pH initial 10.0, final 10.0): 79 MPN per 100 ml
